{"source": "patent US20220218667A1", "about": "“DUAL INHIBITORS OF SOLUBLE EPOXIDE HYDROLASE AND METHODS OF USE THEREOF” (OROX Biosciences, Inc., priority 2019, published 2022)", "key": {"[1]": {"tested_on": "Human primary lung fibroblasts from IPF donors", "assay": "Fibroblast-to-Myofibroblast Transition (FMT) assay", "type": "cell-based", "details": "for IC50: Homo sapiens, Primary lung fibroblast, 1.25 ng/ml TGF-b1", "procedure": "OX1 was evaluated in a primary cell-based Fibroblast-to-Myofibroblast Transition (FMT) assay; an in vitro assay relevant to idiopathic pulmonary fibrosis (TPF). Human primary lung fibroblasts from three (3) IPF donors (IPF06, IPF07, and IPF08) were triggered using 1.25 ng/ml TGF-b1 to induce FMT, one hour after application of compounds. OX1 and Nintedanib (approved drug for TPF) were applied in […] in semi-log dilutions with the top concentration at […] to construct eight (8)-point concentration response curve (CRC) in biological duplicates (ie. on two (2) different cell plates at on (1) occasion). SB525334 was used at […] in 0.1% DMSO as a positive validation control. The readouts at 72 hours were high content analysis (HCA) for aSMA expression and DAPI staining for nuclear count as measurement of potential cytotoxic effects."}, "[2]": {"tested_on": "C57B/L6 mice exposed to bleomycin", "assay": "Example 1: prophylactic treatment of mice exposed to bleomycin (IPF model)", "type": "in vivo, mouse", "details": "OX1, OX3, Nintedanib 30 mg/kg QD, Pirfenidone 100 mg/kg BID; for body weight course over 21 days: bleomycin mice, oral gavage day -1 to 20; for neutrophil migration into BALF / number of lymphocytes in BALF / total cell (leukocyte) count in BALF / increased collagen (fibrosis) score, trichrome / mean Ashcroft score (lung histology) / mean score for mixed peribronchiolar/perivascular inflammation: day 21; for neutrophil migration into BALF / number of lymphocytes in BALF / total cell (leukocyte) count in BALF: oral; for increased collagen (fibrosis) score, trichrome / mean Ashcroft score (lung histology) / mean score for mixed peribronchiolar/perivascular inflammation: compared to vehicle (Group 2)", "description": "4-(5-phenyl-3-{3-[3-(4-trifluoromethyl-phenyl)-ureido]-propyl}-pyrazol-1-yl)-benzenesulfonamide (PTUPB) [termed OX1] was compared to Pirfenidone, Nintedanib, and GSK225629415 [termed OX3] for treatment of IPF using an established model for IPF treating, which is prophylactic treatment of mice exposed to the chemotherapeutic agent bleomycin. […] Pirfenidone and Nintedanib are standard of care for the treatment of idiopathic pulmonary fibrosis and served as reference compounds in the experiment.\nC57B/L6 mice were used in the experiments. When used, Bleomycin was administered intra-oropharyngeally, 1.5 U/kg, QD per established protocol. The test articles were dosed via oral gavage in 200 μL/day vehicle. The doses and formulations of test articles were selected based on the literature describing the lowest doses capable of eliciting pharmacological action.\nAnimals were dosed with the test articles (or vehicle) starting at day −1 to day 20. On day 1, daily doses of Bleomycin commenced in all but group 1 (negative control) which received the vehicle. On day 21, all animals were weighed and sacrificed. After lungs and bronco-alveolar lavage fluid (BALF) were harvested, they were prepared according to standard procedures for further analysis and histology. All animals were assessed twice a week for body weight and overall appearance. Efficacy endpoints measured in this study included lung weight, total leukocytes, and histology as determined by Mason's Trichrome stain and scored using a modified Ashcroft score.\nThe following parameters were measured in bronchoalveolar fluid (BALF): 1) soluble collagen and 2) differential leukocyte counts for different leukocyte populations.\nAfter weighing and removal of BALF from the lungs, they were inflated and fixed using 10% neutral buffered formalin for histopathology analysis. Fifty-four formalin-fixed lung samples from mice were submitted to HistoTox Labs and were processed routinely. Two slides from each block were sectioned and stained with hematoxylin and eosin (H&E) or Masson's trichrome. Glass slides were evaluated with light microscopy by a board-certified veterinary pathologist. Lung sections were scored according to the modified Ashcroft scale."}, "[3]": {"tested_on": "C57BL/6 mice, bleomycin-induced fibrotic lung injury", "assay": "Example 2: therapeutic treatment in bleomycin-induced idiopathic pulmonary fibrosis mouse model", "type": "in vivo", "details": "OX1 60 mg/kg, Pirfenidone 100 mg/kg", "description": "The purpose of this study is to induce fibrotic lung injury in mice via a single administration of a glycopeptide antibiotic, bleomycin, in order to evaluate the efficacy of dual sEH and COX-2 inhibitor OX-1 in treating and reducing the symptoms associated with idiopathic pulmonary fibrosis. Pirfenidone, standard of care for the treatment of idiopathic pulmonary fibrosis, was used as a reference compound.\nMale C57BL/6 mice from Charles River Laboratories aging of 7-8 weeks and weighing around 18-22 g at the time of their enrollment were used in the study.\nDoses of OX1 at 60 mg/kg, Pirfenidone at 100 mg/kg, and the disease inducer Bleomycin at 1.5 mg/kg were used. A dosing rate of 10 mL/kg (approximately 0.2 mL/mouse according to their body weight) of OX1 was administered orally once daily to the mice. The mice received OX1 at 60 mg/kg once daily. A dosing rate of 10 mL/kg (approximately 0.2 mL/mouse according to their body weight) of Pirfenidone solution was administered once daily to the mice of the groups receiving Pirfenidone orally at the dose of 100 mg/kg once daily. A single intratracheal instillation of approximately 50 μL (1.5 mg/kg with a dosing rate of 2.5 mL/kg in sterile 0.9% saline) of bleomycin solution was administered to all mice except the sham group on day 0. Animals in the Sham group received one intratracheal instillation of approximately 50 μL of 0.9% saline solution on Day 0 and returned to their respective cages.\nTreatment with the vehicle or test articles were initiated and administered starting on day 7 to day 21 as scheduled and described in Table 1 above. All test articles, reference compound and vehicle were administered to animals orally once daily. Food and water were given ad libitum. Daily observations of the behavioral and general health status of the animals were done. Daily body weight was also measured.\nPrior to physiological assessment, all mice were introduced to the plethysmograph chamber environment. After the acclimatization period, the functional respiratory parameters were assessed by the whole-body plethysmograph on Day 0 (before bleomycin instillation), 7, 14 and 21 post-bleomycin instillation. Each measurement was performed with a mouse placed alone in an unrestrained whole-body plethysmography chamber (Buxco Electronics Inc.) to measure respiratory functions. The functional respiratory parameters analyzed included; the respiratory rate, the PenH ([…]) and the inspiratory/expiratory time measurements.\nOn the surgery day (Day 21), the mice were anesthetized, instrumented and arterial blood oxygen saturation (SpO2) was recorded. Blood oxygen saturation was read off of the pulse oximeter (STARR Life Sciences MouseOx Plus system, Oakmont, Pa.) with the probe attached to the right thigh of the animal. The saturation values were measured in percentage (%). At the moment of the sacrifice, the mouse thoracic cavity was open to expose the lungs and all mice were euthanatized by exsanguination. The trachea was then connected to the cannula of a perfusion system. The left lung was clamped while 1.5 mL of cold PBS solution (3×500 μL) was injected by the trachea to perform a bronchoalveolar lavage fluid (BALF) on the right lobe of the lungs and was collected on ice for further analysis. The total cells count with cells differential, the cytokine levels including TNF-α, TGF-β, IL-4, IL-5 and IL-17a, the total protein content as well as the soluble collagen were assessed in the BALF samples. Once collected, 300 μL of the BALF was transferred in an EDTA tube, kept at 2-4° C. and shipped to Biovet Inc. for the total cells count with cells differential analysis. The remaining BALF sample was centrifuged at 1200 rpm for 10 minutes at 4° C. to remove cells. The supernatant was aliquots and frozen at−80° C. until analysis was performed. […]"}, "[4]": {"details": "lung histopathology day 21, mean"}, "[5]": {"details": "mean, BLM mice, oral once daily day 7 to 21"}}, "note": "Where two headings read alike, the source gives them in different places. Marks after values point to notes of the source that are not given here.", "data": [{"smiles": "COC(=O)c1ccc2c(c1)NC(=O)/C2=C(\\Nc1ccc(N(C)C(=O)CN2CCN(C)CC2)cc1)c1ccccc1", "note": "[Nintedanib]", "values": [{"measurement": "Loss of Nuclei", "setting": "[1]; DAPI staining, nuclear count as measure of potential cytotoxic effects, 72 hours", "value": "Yes"}, {"measurement": "IC50", "setting": "[1]; donor IPF06, readout at 72 hours, read-out: αSMA inhibition IC50 (μM), Patient Identifier IPF06", "value": 0.6, "unit": "µM"}, {"measurement": "IC50", "setting": "[1]; donor IPF07, readout at 72 hours, read-out: αSMA inhibition IC50 (μM), Patient Identifier IPF07", "value": 0.6, "unit": "µM"}, {"measurement": "IC50", "setting": "[1]; donor IPF08, readout at 72 hours, read-out: αSMA inhibition IC50 (μM), Patient Identifier IPF08", "value": 0.4, "unit": "µM"}, {"measurement": "IC50", "setting": "[1]; mean of three IPF donors, 72 hours, read-out: αSMA inhibition IC50 (μM), Mean", "value": 0.5, "unit": "µM"}, {"measurement": "body weight course over 21 days", "setting": "[2]", "value": "sustained weight loss"}, {"measurement": "neutrophil migration into BALF", "setting": "[2]", "value": "effective"}, {"measurement": "number of lymphocytes in BALF", "setting": "[2]", "value": "trend increasingly lower"}, {"measurement": "total cell (leukocyte) count in BALF", "setting": "[2]", "value": "largest reduction"}, {"measurement": "increased collagen (fibrosis) score, trichrome", "setting": "[2]", "value": "the highest"}, {"measurement": "mean Ashcroft score (lung histology)", "setting": "[2]", "value": "the highest"}, {"measurement": "mean score for mixed peribronchiolar/perivascular inflammation", "setting": "[2]", "value": "similar"}]}, {"smiles": "Cc1ccc(=O)n(-c2ccccc2)c1", "note": "[Pirfenidone]", "values": [{"measurement": "Eosinophils (cells)", "setting": "[3]; BALF day 21, mean", "value": 874, "unit": "cells"}, {"measurement": "Lymphocytes (cells)", "setting": "[3]; BALF day 21, mean", "value": 174517, "unit": "cells"}, {"measurement": "Macrophages (cells)", "setting": "[3]; BALF day 21, mean", "value": 204110, "unit": "cells"}, {"measurement": "Neutrophils (cells)", "setting": "[3]; BALF day 21, mean", "value": 6999, "unit": "cells"}, {"measurement": "Soluble collagen", "setting": "[3]; BALF day 21, mean", "value": 197.82, "unit": "µg"}, {"measurement": "Total BALF cytokines (pg) IL-4", "setting": "[3]; BALF day 21, mean", "value": 0.00, "unit": "pg"}, {"measurement": "Total BALF cytokines (pg) IL-5", "setting": "[3]; BALF day 21, mean", "value": 2.17, "unit": "pg"}, {"measurement": "Total BALF cytokines (pg) IL-6", "setting": "[3]; BALF day 21, mean", "value": 11.98, "unit": "pg"}, {"measurement": "Total BALF cytokines (pg) IL-17", "setting": "[3]; BALF day 21, mean", "value": 0.00, "unit": "pg"}, {"measurement": "Total BALF cytokines (pg) IP-10", "setting": "[3]; BALF day 21, mean", "value": 15.24, "unit": "pg"}, {"measurement": "Total BALF cytokines (pg) LIF", "setting": "[3]; BALF day 21, mean", "value": 24.67, "unit": "pg"}, {"measurement": "Total BALF cytokines (pg) MIG", "setting": "[3]; BALF day 21, mean", "value": 8.58, "unit": "pg"}, {"measurement": "Total BALF cytokines (pg) TNFa", "setting": "[3]; BALF day 21, mean", "value": 0.00, "unit": "pg"}, {"measurement": "Total TGFβ", "setting": "[3]; BALF day 21, mean", "value": 472.64, "unit": "pg"}, {"measurement": "Total cell counts (cells)", "setting": "[3]; BALF day 21, mean", "value": 386500, "unit": "cells"}, {"measurement": "Percent Survival (%)", "setting": "[3]; BLM mice, oral once daily day 7 to 21", "value": 91.70, "unit": "%"}, {"measurement": "Ashcroft score", "setting": "[3]; [4]", "value": "3.5 ††"}, {"measurement": "Collagen content (%)", "setting": "[3]; [4]", "value": 5.91, "unit": "%"}, {"measurement": "Pulmonary foci (%)", "setting": "[3]; [4]", "value": 7.46, "unit": "%"}, {"measurement": "Body weight changes from day 0 (%)", "setting": "[3]; [5]", "value": 2.47, "unit": "%"}, {"measurement": "Body weight changes from day 7 (%)", "setting": "[3]; [5]", "value": 6.49, "unit": "%"}, {"measurement": "body weight course over 21 days", "setting": "[2]", "value": "sustained weight loss"}, {"measurement": "neutrophil migration into BALF", "setting": "[2]", "value": "did not exhibit any effects"}, {"measurement": "number of lymphocytes in BALF", "setting": "[2]", "value": "trend increasingly lower"}, {"measurement": "total cell (leukocyte) count in BALF", "setting": "[2]", "value": "did not demonstrate the same level of reduction"}, {"measurement": "increased collagen (fibrosis) score, trichrome", "setting": "[2]", "value": "slightly lower"}, {"measurement": "mean Ashcroft score (lung histology)", "setting": "[2]", "value": "slightly lower"}, {"measurement": "mean score for mixed peribronchiolar/perivascular inflammation", "setting": "[2]", "value": "similar"}]}]}
